Source: ChEMBL document CHEMBL1201861, “Genomics of Drug Sensitity in Cancer screening data, Wellcome Trust Sanger Institute”

tested on: NCI-H2170; assay: cells; format: functional, cell-based; settings: Homo sapiens;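 further: cell viability assay measuring growth inhibition of human NCI-H2170 cancer cells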
Description: SANGER: Inhibition of human NCI-H2170 cell growth in a cell viability assay.

Compound | IC50
OC[C@H](Cc1ccccc1)Nc1nc(Oc2ccc3c(c2)CCC3)nc2c1ncn2Cc1ccc(-c2ccccc2)cc1 | > 10.2 µM

tested on: PFSK-1; assay: cells; format: functional, cell-based; settings: Homo sapiens;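 further: cell viability assay measuring how strongly compounds suppress growth of human PFSK-1 cells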
Description: SANGER: Inhibition of human PFSK-1 cell growth in a cell viability assay.

Compound | IC50
OC[C@H](Cc1ccccc1)Nc1nc(Oc2ccc3c(c2)CCC3)nc2c1ncn2Cc1ccc(-c2ccccc2)cc1 | > 10.2 µM

tested on: LC4-1; assay: cells; format: functional, cell-based, Homo sapiens; settings: Homo sapiens, LC4-1;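 further: growth inhibition of LC4-1 cells, read out with a cell viability assay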
Description: SANGER: Inhibition of human LC4-1 cell growth in a cell viability assay.

Compound | IC50
OC[C@H](Cc1ccccc1)Nc1nc(Oc2ccc3c(c2)CCC3)nc2c1ncn2Cc1ccc(-c2ccccc2)cc1 | > 10.2 µM

tested on: CPC-N; assay: cells; format: functional, cell-based, Homo sapiens; settings: Homo sapiens, CPC-N;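 further: growth inhibition of CPC-N cells, with a cell viability assay as the readout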
Description: SANGER: Inhibition of human CPC-N cell growth in a cell viability assay.

Compound | IC50
OC[C@H](Cc1ccccc1)Nc1nc(Oc2ccc3c(c2)CCC3)nc2c1ncn2Cc1ccc(-c2ccccc2)cc1 | > 10.2 µM

tested on: NCI-H716; assay: cells; format: functional, cell-based, Homo sapiens; settings: Homo sapiens, NCI-H716;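 further: growth inhibition of human NCI-H716 cells, measured by a cell viability assay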
Description: SANGER: Inhibition of human NCI-H716 cell growth in a cell viability assay.

Compound | IC50
OC[C@H](Cc1ccccc1)Nc1nc(Oc2ccc3c(c2)CCC3)nc2c1ncn2Cc1ccc(-c2ccccc2)cc1 | > 10.2 µM

tested on: BFTC-909; assay: cells; format: functional, cell-based; settings: Homo sapiens
Description: SANGER: Inhibition of human BFTC-909 cell growth in a cell viability assay.

Compound | IC50
OC[C@H](Cc1ccccc1)Nc1nc(Oc2ccc3c(c2)CCC3)nc2c1ncn2Cc1ccc(-c2ccccc2)cc1 | > 10.2 µM

tested on: A2058; assay: cells; format: functional, cell-based; settings: Homo sapiens;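 further: reduction of A2058 cell growth, read out with a viability assay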
Description: SANGER: Inhibition of human A2058 cell growth in a cell viability assay.

Compound | IC50
OC[C@H](Cc1ccccc1)Nc1nc(Oc2ccc3c(c2)CCC3)nc2c1ncn2Cc1ccc(-c2ccccc2)cc1 | > 10.2 µM

tested on: CESS; assay: SANGER: Inhibition of human CESS cell growth in a cell viability assay.; format: functional, cell-based; settings: Homo sapiens, CESS

Compound | IC50
OC[C@H](Cc1ccccc1)Nc1nc(Oc2ccc3c(c2)CCC3)nc2c1ncn2Cc1ccc(-c2ccccc2)cc1 | > 10.2 µM

tested on: HOP-92; assay: cells; format: functional, cell-based; settings: Homo sapiens;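 further: cell viability readout, with IC50 reflecting inhibition of HOP-92 cell growth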
Description: SANGER: Inhibition of human HOP-92 cell growth in a cell viability assay.

Compound | IC50
OC[C@H](Cc1ccccc1)Nc1nc(Oc2ccc3c(c2)CCC3)nc2c1ncn2Cc1ccc(-c2ccccc2)cc1 | > 10.2 µM

tested on: HCC38; assay: cells; format: functional, cell-based; settings: Homo sapiens;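 further: cell viability assay on the human HCC38 cell line, with IC50 marking the concentration that inhibits cell growth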
Description: SANGER: Inhibition of human HCC38 cell growth in a cell viability assay.

Compound | IC50
OC[C@H](Cc1ccccc1)Nc1nc(Oc2ccc3c(c2)CCC3)nc2c1ncn2Cc1ccc(-c2ccccc2)cc1 | > 10.2 µM

tested on: TYK-nu; assay: cells; format: functional, cell-based; settings: Homo sapiens;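 further: growth inhibition of human TYK-nu cells, read out by a cell viability assay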
Description: SANGER: Inhibition of human TYK-nu cell growth in a cell viability assay.

Compound | IC50
OC[C@H](Cc1ccccc1)Nc1nc(Oc2ccc3c(c2)CCC3)nc2c1ncn2Cc1ccc(-c2ccccc2)cc1 | > 10.2 µM

tested on: KARPAS-422; assay: cells; format: functional, cell-based, Homo sapiens; settings: Homo sapiens, KARPAS-422
Description: SANGER: Inhibition of human KARPAS-422 cell growth in a cell viability assay.

Compound | IC50
OC[C@H](Cc1ccccc1)Nc1nc(Oc2ccc3c(c2)CCC3)nc2c1ncn2Cc1ccc(-c2ccccc2)cc1 | 4.93 µM

tested on: HCC70; assay: cells; format: functional, cell-based; settings: Homo sapiens;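 further: cell viability assay measuring how strongly the compound suppresses proliferation of HCC70 cells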
Description: SANGER: Inhibition of human HCC70 cell growth in a cell viability assay.

Compound | IC50
OC[C@H](Cc1ccccc1)Nc1nc(Oc2ccc3c(c2)CCC3)nc2c1ncn2Cc1ccc(-c2ccccc2)cc1 | > 10.2 µM

tested on: SW1417; assay: cells; format: functional, cell-based; settings: Homo sapiens;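 further: growth inhibition of human SW1417 cells, read out with a cell viability assay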
Description: SANGER: Inhibition of human SW1417 cell growth in a cell viability assay.

Compound | IC50
OC[C@H](Cc1ccccc1)Nc1nc(Oc2ccc3c(c2)CCC3)nc2c1ncn2Cc1ccc(-c2ccccc2)cc1 | > 10.2 µM

tested on: RT-112; assay: cells; format: functional, cell-based; settings: Homo sapiens
Description: SANGER: Inhibition of human RT-112 cell growth in a cell viability assay.

Compound | IC50
OC[C@H](Cc1ccccc1)Nc1nc(Oc2ccc3c(c2)CCC3)nc2c1ncn2Cc1ccc(-c2ccccc2)cc1 | > 10.2 µM

tested on: T98G; assay: cells; format: functional, cell-based; settings: Homo sapiens;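 further: growth inhibition of T98G cells, read out by a cell viability assay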
Description: SANGER: Inhibition of human T98G cell growth in a cell viability assay.

Compound | IC50
OC[C@H](Cc1ccccc1)Nc1nc(Oc2ccc3c(c2)CCC3)nc2c1ncn2Cc1ccc(-c2ccccc2)cc1 | > 10.2 µM

tested on: EB-3; assay: cells; format: functional, cell-based, Homo sapiens; settings: Homo sapiens, EB-3;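 further: human EB-3 cells, growth inhibition read out via a cell viability assay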
Description: SANGER: Inhibition of human EB-3 cell growth in a cell viability assay.

Compound | IC50
OC[C@H](Cc1ccccc1)Nc1nc(Oc2ccc3c(c2)CCC3)nc2c1ncn2Cc1ccc(-c2ccccc2)cc1 | > 10.2 µM

tested on: HT-1376; assay: cells; format: functional, cell-based; settings: Homo sapiens
Description: SANGER: Inhibition of human HT-1376 cell growth in a cell viability assay.

Compound | IC50
OC[C@H](Cc1ccccc1)Nc1nc(Oc2ccc3c(c2)CCC3)nc2c1ncn2Cc1ccc(-c2ccccc2)cc1 | > 10.2 µM

tested on: H4; assay: cells; format: functional, cell-based; settings: Homo sapiens
Description: SANGER: Inhibition of human H4 cell growth in a cell viability assay.

Compound | IC50
OC[C@H](Cc1ccccc1)Nc1nc(Oc2ccc3c(c2)CCC3)nc2c1ncn2Cc1ccc(-c2ccccc2)cc1 | 1.86 µM

tested on: KP-N-YN; assay: cells; format: functional, cell-based; settings: Homo sapiens;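 further: growth inhibition of KP-N-YN cells, read out with a cell viability assay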
Description: SANGER: Inhibition of human KP-N-YN cell growth in a cell viability assay.

Compound | IC50
OC[C@H](Cc1ccccc1)Nc1nc(Oc2ccc3c(c2)CCC3)nc2c1ncn2Cc1ccc(-c2ccccc2)cc1 | > 10.2 µM

tested on: BHY; assay: cells; format: functional, cell-based; settings: Homo sapiens;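 further: cell growth inhibition read out by a viability assay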
Description: SANGER: Inhibition of human BHY cell growth in a cell viability assay.

Compound | IC50
OC[C@H](Cc1ccccc1)Nc1nc(Oc2ccc3c(c2)CCC3)nc2c1ncn2Cc1ccc(-c2ccccc2)cc1 | 5.13 µM

tested on: LB647-SCLC; assay: cells; format: functional, cell-based, Homo sapiens; settings: Homo sapiens, LB647-SCLC;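 further: cell growth inhibition, read out by a viability assay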
Description: SANGER: Inhibition of human LB647-SCLC cell growth in a cell viability assay.

Compound | IC50
OC[C@H](Cc1ccccc1)Nc1nc(Oc2ccc3c(c2)CCC3)nc2c1ncn2Cc1ccc(-c2ccccc2)cc1 | 5.49 µM

tested on: SU-DHL-1; assay: SANGER: Inhibition of human SU-DHL-1 cell growth in a cell viability assay.; format: functional, cell-based; settings: Homo sapiens, SU-DHL-1

Compound | IC50
OC[C@H](Cc1ccccc1)Nc1nc(Oc2ccc3c(c2)CCC3)nc2c1ncn2Cc1ccc(-c2ccccc2)cc1 | > 10.2 µM

tested on: HuO-3N1; assay: cells; format: functional, cell-based; settings: Homo sapiens;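 further: cell viability readout used to measure how strongly compounds suppress proliferation of human HuO-3N1 cells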
Description: SANGER: Inhibition of human HuO-3N1 cell growth in a cell viability assay.

Compound | IC50
OC[C@H](Cc1ccccc1)Nc1nc(Oc2ccc3c(c2)CCC3)nc2c1ncn2Cc1ccc(-c2ccccc2)cc1 | > 10.2 µM

tested on: SCC-4; assay: cells; format: functional, cell-based; settings: Homo sapiens;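 further: growth inhibition of human SCC-4 cells, read out as cell viability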
Description: SANGER: Inhibition of human SCC-4 cell growth in a cell viability assay.

Compound | IC50
OC[C@H](Cc1ccccc1)Nc1nc(Oc2ccc3c(c2)CCC3)nc2c1ncn2Cc1ccc(-c2ccccc2)cc1 | > 10.2 µM

tested on: NCI-H1436; assay: cells; format: functional, cell-based, Homo sapiens; settings: Homo sapiens, NCI-H1436;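 further: growth suppression of human NCI-H1436 cells, determined with a cell viability readout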
Description: SANGER: Inhibition of human NCI-H1436 cell growth in a cell viability assay.

Compound | IC50
OC[C@H](Cc1ccccc1)Nc1nc(Oc2ccc3c(c2)CCC3)nc2c1ncn2Cc1ccc(-c2ccccc2)cc1 | > 10.2 µM

tested on: IMR-5; assay: cells; format: functional, cell-based, Homo sapiens; settings: Homo sapiens, IMR-5; read-out: IC50;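 further: growth inhibition of human IMR-5 cells, read out with a cell viability assay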
Description: SANGER: Inhibition of human IMR-5 cell growth in a cell viability assay.

Compound | IC50
OC[C@H](Cc1ccccc1)Nc1nc(Oc2ccc3c(c2)CCC3)nc2c1ncn2Cc1ccc(-c2ccccc2)cc1 | 3.1 µM

tested on: M059J; assay: cells; format: functional, cell-based; settings: Homo sapiens;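 further: growth inhibition of M059J cells, read out with a cell viability assay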
Description: SANGER: Inhibition of human M059J cell growth in a cell viability assay.

Compound | IC50
OC[C@H](Cc1ccccc1)Nc1nc(Oc2ccc3c(c2)CCC3)nc2c1ncn2Cc1ccc(-c2ccccc2)cc1 | > 10.2 µM
